Where two headings read alike, the source gives them in different places.
Columns and labels:
human CB2 receptors = human CB2 receptors (Homo sapiens (Human), UniProt P34972); test: cAMP assay, CHO cells expressing human CB2 receptors; type: cell-based
In short: (§1)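 Read-out is TR-FRET (excitation 355 nm, emission 730/645 nm) after cell lysis, with cAMP content taken from a standard curve and EC50 calculated. Cells were pretreated with 1 mM IBMX in Krebs Ringer bicarbonate buffer, then incubated with compounds for 30 min at 30 °C.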

human CB1 receptors = human CB1 receptors (Homo sapiens (Human), UniProt P21554); test: cAMP assay, CHO cells expressing human CB1 receptors; type: cell-based
In short: as §1

[1] = CHO cells expressing human CB2, cAMP, read-out: human CB2 EC50
[2] = CHO cells expressing human CB1, cAMP, read-out: human CB1 EC50

Chain of human CB2 receptors (P34972 whole entry): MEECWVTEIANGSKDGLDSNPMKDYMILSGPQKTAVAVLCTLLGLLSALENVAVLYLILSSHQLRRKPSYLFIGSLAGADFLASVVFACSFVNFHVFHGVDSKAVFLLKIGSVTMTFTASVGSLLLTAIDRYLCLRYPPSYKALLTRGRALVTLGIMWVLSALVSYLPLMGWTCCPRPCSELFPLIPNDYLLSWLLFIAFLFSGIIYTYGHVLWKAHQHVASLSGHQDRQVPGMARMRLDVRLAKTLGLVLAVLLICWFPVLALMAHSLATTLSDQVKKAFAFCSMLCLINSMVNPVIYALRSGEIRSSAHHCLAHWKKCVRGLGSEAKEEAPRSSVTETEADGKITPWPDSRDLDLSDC
Chain of human CB1 receptors (P21554 whole entry): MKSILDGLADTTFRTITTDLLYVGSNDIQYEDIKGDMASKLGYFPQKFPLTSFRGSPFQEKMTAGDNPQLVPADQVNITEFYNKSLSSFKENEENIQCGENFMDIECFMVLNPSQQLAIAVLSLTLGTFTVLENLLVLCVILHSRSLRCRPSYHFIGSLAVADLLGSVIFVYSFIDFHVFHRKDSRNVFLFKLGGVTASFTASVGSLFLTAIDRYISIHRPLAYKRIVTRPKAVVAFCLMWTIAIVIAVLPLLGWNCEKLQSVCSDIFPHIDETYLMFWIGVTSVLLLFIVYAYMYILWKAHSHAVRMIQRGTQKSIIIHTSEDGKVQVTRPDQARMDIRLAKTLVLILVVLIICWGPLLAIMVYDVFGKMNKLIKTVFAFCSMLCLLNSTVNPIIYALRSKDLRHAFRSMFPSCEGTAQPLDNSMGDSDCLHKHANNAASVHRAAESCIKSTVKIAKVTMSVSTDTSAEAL

Row | Structure (SMILES) | EC50 (human CB2 receptors; [1]) [nM] | EC50 (human CB1 receptors; [2]) [nM] | EC50 (human CB2 receptors) [nM] | EC50 (human CB1 receptors) [nM]
1 | COCCOc1nc(C(=O)N[C@@H](CC2CC2)C(N)=O)ccc1C1CC1 [Example 161, 5-Cyclopropyl-6-(2-methoxy-ethoxy)-pyridine-2-carboxylic acid ((S)-1-carbamoyl-2-cyclopropyl-ethyl)-amide] | 124 | > 10000 |  | 
2 | CC(C)C[C@@H](CO)NC(=O)c1ccc(N2CCCC2)c(OCC2CC2)n1 [Example 14, 6-Cyclopropylmethoxy-5-pyrrolidin-1-yl-pyridine-2-carboxylic acid ((S)-1-hydroxymethyl-3-methyl-butyl)-amide] | 3 | > 10000 |  | 
3 | CCC(CC)(NC(=O)c1ccc(C2CC2)c(S(=O)(=O)CC(C)C)n1)C(=O)NC [Example 367, 5-Cyclopropyl-6-(2-methyl-propane-1-sulfonyl)-pyridine-2-carboxylic acid (1-ethyl-1-methylcarbamoyl-propyl)-amide] | 195 | > 10000 |  | 
4 | CC(C)(CCN1CCOCC1)NC(=O)c1ccc(N2CCCC2)c(OCC2CC2)n1 [Example 35, 6-Cyclopropylmethoxy-5-pyrrolidin-1-yl-pyridine-2-carboxylic acid (1,1-dimethyl-3-morpholin-4-yl-propyl)-amide] | 7.1 | > 10000 |  | 
5 | CCC(CC)(NC(=O)c1cccc(-c2cccc(Cl)c2)n1)C(=O)N(C)C [Example 23, 6-(3-Chloro-phenyl)-pyridine-2-carboxylic acid (1-dimethylcarbamoyl-1-ethyl-propyl)-amide] | 48.2 | > 10000 |  | 
6 | Cc1nc(C(C)(C)NC(=O)c2ccc(N3CCC(=O)C3)c(OCC3CC3)n2)no1 [Example 334, 6-Cyclopropylmethoxy-5-(3-oxo-pyrrolidin-1-yl)-pyridine-2-carboxylic acid [1-methyl-1-(5-methyl-[1,2,4]oxadiazol-3-yl)-ethyl]-amide] | 108 | > 10000 |  | 
7 | NC(=O)[C@H](CC1CC1)NC(=O)c1ccc(Br)c(OCC2CC2)n1 [Example 110, 5-Bromo-6-cyclopropylmethoxy-pyridine-2-carboxylic acid ((S)-1-carbamoyl-2-cyclopropyl-ethyl)-amide] | 224 | > 10000 |  | 
8 | CC(C)(C)C(NC(=O)c1ccc(C2CC2)c(OCC(F)(F)F)n1)c1nccs1 (centres unmarked) [Example 306, 5-Cyclopropyl-6-(2,2,2-trifluoro-ethoxy)-pyridine-2-carboxylic acid (2,2-dimethyl-1-thiazol-2-yl-propyl)-amide] | 138 | > 10000 |  | 
9 | Cc1nc([C@@H](NC(=O)c2ccc(C3CC3)c(OCC3CC3)n2)C2CC2)no1 [Example 198, (+)-5-Cyclopropyl-6-cyclopropylmethoxy-pyridine-2-carboxylic acid [cyclopropyl-(5-methyl-[1,2,4]oxadiazol-3-yl)-methyl]-amide] | 6.8 | > 10000 |  | 
10 | CC(C)C[C@H](CO)NC(=O)c1ccc(C2CC2)c(OCC2CC2)n1 [Example 174, (R)-5-Cyclopropyl-6-(cyclopropylmethoxy)-N-(1-hydroxy-4-methylpentan-2-yl)picolinamide] | 32 | > 10000 |  | 
11 | Cc1nc([C@H](CC2CC2)NC(=O)c2ccc(C3CC3)c(OCC3CC3)n2)no1 [Example 163, 5-Cyclopropyl-6-cyclopropylmethoxy-pyridine-2-carboxylic acid [(S)-2-cyclopropyl-1-(5-methyl-[1,2,4]oxadiazol-3-yl)-ethyl]-amide] | 14.5 | > 10000 |  | 
12 | CC(C)C[C@H](C#N)NC(=O)c1ccc(C2CC2)c(OCC2CC2)n1 [Example 247, 5-Cyclopropyl-6-cyclopropylmethoxy-pyridine-2-carboxylic acid ((−)-1-cyano-3-methyl-butyl)-amide] | 5.6 | > 10000 |  | 
13 | CC(C)C(C)(NC(=O)c1ccc(C2CC2)c(OCC2CC2)n1)C(N)=O (centres unmarked) [Example 169, N-(1-Amino-2,3-dimethyl-1-oxobutan-2-yl)-5-cyclopropyl-6-(cyclopropylmethoxy)picolinamide] | 182 | > 10000 |  | 
14 | CCOC(=O)C(CC)(CC)NC(=O)c1ccc(C(F)(F)F)c(OCC2CC2)n1 [Example 312, 2-[(6-Cyclopropylmethoxy-5-trifluoromethyl-pyridine-2-carbonyl)-amino]-2-ethyl-butyric acid ethyl ester] | 2.4 | > 10000 |  | 
15 | NC(=O)[C@@H](NC(=O)c1ccc(C2CC2)c(OCC2CC2)n1)c1ccc(F)cc1 [Example 328, 5-Cyclopropyl-6-cyclopropylmethoxy-pyridine-2-carboxylic acid [(S)-carbamoyl-(4-fluoro-phenyl)-methyl]-amide] | 3.9 | > 10000 |  | 
16 | CC(C)CSc1nc(C(=O)N[C@@H](CC(C)C)C(N)=O)ccc1C1CC1 [Example 346, 5-Cyclopropyl-6-isobutylsulfanyl-pyridine-2-carboxylic acid ((S)-1-carbamoyl-3-methyl-butyl)-amide] | 11 | > 10000 |  | 

Row | Structure (SMILES) | EC50 (human CB2 receptors; [1]) [nM] | EC50 (human CB1 receptors; [2]) [nM] | EC50 (human CB2 receptors) [nM] | EC50 (human CB1 receptors) [nM]
17 | COCCOCC(C)(C)NC(=O)c1ccc(C2CC2)c(OCC2CC2)n1 [Example 117, 5-Cyclopropyl-6-cyclopropylmethoxy-pyridine-2-carboxylic acid [2-(2-methoxy-ethoxy)-1,1-dimethyl-ethyl]-amide] | 350 | > 10000 |  | 
18 | COC(=O)[C@H](CC(C)C)NC(=O)c1ccc(C2CC2)c(OCC2CC2)n1 [Example 270, (S)-2-[(5-Cyclopropyl-6-cyclopropylmethoxy-pyridine-2-carbonyl)-amino]-4-methyl-pentanoic acid methyl ester] | 1.3 | 91.4 |  | 
19 | CN(C)C(=O)C(NC(=O)c1ccc(N2CC(F)(F)C2)c(OCC2CC2)n1)c1ccccc1 (centres unmarked) [Example 255, 6-Cyclopropylmethoxy-5-(3,3-difluoro-azetidin-1-yl)-pyridine-2-carboxylic acid (dimethylcarbamoyl-phenyl-methyl)-amide] | 61.3 | > 10000 |  | 
20 | CC(C)C[C@H](NC(=O)c1ccc(C2CC2)c(Cc2ccc(F)cc2)n1)C(=O)O [Example 336, (S)-2-{[5-Cyclopropyl-6-(4-fluoro-benzyl)-pyridine-2-carbonyl]-amino}-4-methyl-pentanoic acid] | 239 | > 10000 |  | 
21 | CC(C)(NC(=O)c1ccc(C2CC2)c(-c2cccc(Cl)c2)n1)c1nccs1 [Example 116, 6-(3-Chloro-phenyl)-5-cyclopropyl-pyridine-2-carboxylic acid (1-methyl-1-thiazol-2-yl-ethyl)-amide] |  |  | 85.9 | 1450
22 | Cc1nc([C@H](CC2CC2)NC(=O)c2ccc(C3CC3)c(Cc3ccc(F)cc3)n2)no1 [Example 327, 5-Cyclopropyl-6-(4-fluoro-benzyl)-pyridine-2-carboxylic acid [(S)-2-cyclopropyl-1-(5-methyl-[1,2,4]oxadiazol-3-yl)-ethyl]-amide] | 1.1 | 13.6 |  | 
23 | Cc1nc(C(C)(C)NC(=O)c2cccc(-c3ccc(Cl)c(F)c3)n2)no1 [Example 267, 6-(4-Chloro-3-fluoro-phenyl)-pyridine-2-carboxylic acid [1-methyl-1-(5-methyl-[1,2,4]oxadiazol-3-yl)-ethyl]-amide] | 26.4 | > 10000 |  | 
24 | NC(=O)[C@@H](NC(=O)c1ccc(C2CC2)c(OCC(F)(F)F)n1)c1ccccc1 [Example 301, 5-Cyclopropyl-6-(2,2,2-trifluoro-ethoxy)-pyridine-2-carboxylic acid ((S)-carbamoyl-phenyl-methyl)-amide] | 130 | > 10000 |  | 
25 | NC(=O)[C@H](CC1CC1)NC(=O)c1ccc(C(F)(F)F)c(OCC2CC2)n1 [Example 113, 6-Cyclopropylmethoxy-5-trifluoromethyl-pyridine-2-carboxylic acid ((S)-1-carbamoyl-2-cyclopropyl-ethyl)-amide] | 200 | > 10000 |  | 
26 | O=C(NC1(CO)CCCC1)c1ccc(C2CC2)c(OCC2CC2)n1 [Example 175, 5-Cyclopropyl-6-(cyclopropylmethoxy)-N-(1-(hydroxymethyl)cyclopentyl)picolinamide] | 47.8 | > 10000 |  | 
27 | CCOC(=O)C(CC)(CC)NC(=O)c1ccc(N2CC(F)(F)C2)c(OCC2CC2)n1 [Example 266, 2-{[6-Cyclopropylmethoxy-5-(3,3-difluoro-azetidin-1-yl)-pyridine-2-carbonyl]-amino}-2-ethyl-butyric acid ethyl ester] | 2 | 1300 |  | 
28 | Cc1nc(C(C)(C)NC(=O)c2ccc(C3CC3)c(OC(C)C(F)(F)F)n2)no1 (centres unmarked) [Example 373, 5-Cyclopropyl-6-(2,2,2-trifluoro-1-methyl-ethoxy)-pyridine-2-carboxylic acid [1-methyl-1-(5-methyl-[1,2,4]oxadiazol-3-yl)-ethyl]-amide] | 127 | > 10000 |  | 
29 | CC(C)(NC(=O)c1ccc(C(F)(F)F)c(OCC2CC2)n1)c1nccs1 [Example 121, 6-Cyclopropylmethoxy-5-trifluoromethyl-pyridine-2-carboxylic acid (1-methyl-1-thiazol-2-yl-ethyl)-amide] | 111 | 1350 |  | 
30 | CNC(=O)C(C)(C)NC(=O)c1ccc(N2CCC(F)(F)C2)c(OCC2CC2)n1 [Example 80, 6-Cyclopropylmethoxy-5-(3,3-difluoro-pyrrolidin-1-yl)-pyridine-2-carboxylic acid (1-methyl-1-methylcarbamoyl-ethyl)-amide] | 134 | 5.8 |  | 
31 | CCC(CC)(NC(=O)c1ccc(C2CC2)c(OCC[C@H](O)C(F)(F)F)n1)C(=O)NC [Example 320, 5-Cyclopropyl-6-((S)-4,4,4-trifluoro-3-hydroxy-butoxy)-pyridine-2-carboxylic acid (1-ethyl-1-methylcarbamoyl-propyl)-amide] | 4.4 | 323 |  | 

Reference: US9290451B2 (Hoffmann-La Roche Inc., priority 2011, dated 2016)
